Source: ChEMBL document CHEMBL3885861, “Open TG-GATES”

Species: Rattus norvegicus
Assay: Open TG-GATES - Regimen: Daily Repeat
Format: toxicity, organism-based, Sprague-Dawley
Design: regimen Daily Repeat, gender Male, age 6 weeks
Conditions: in vivo, po, 3 mg/kg, route gavage, dose level Low; for APTT / Bas / Eos / Fbg / Hb / Ht / Lym / MCH / MCHC / MCV / Mono / Neu / PT / Plat / RBC / Ret / WBC: tissue Blood
[1] = 72 h, tissue Kidney, time 3 day
[2] = 72 h, tissue Plasma, time 3 day

## CN(C)CCC(c1ccc(Cl)cc1)c1ccccn1 (stereo unspecified) [CHLORPHENIRAMINE]
72 h, time 3 day
  TERMINAL_BW: 233.5 g
  APTT: 18.3 s
  Bas: 0.2%
  Eos: 1%
  Fbg: 299.4 mg/dL
  Hb: 13.3 g/dL
  Ht: 41.5%
  Lym: 80.4%
  MCH: 21 pg
  MCHC: 32.1%
  MCV: 65.5 fL
  Mono: 2.8%
  Neu: 15.2%
  PT: 14.5 s
  Plat: 124 x10_4/uL
  RBC: 634 x10_4/ul
  Ret: 7.1%
  WBC: 89 x10_2/uL
[1]
  KIDNEY_L: 1 g
  KIDNEY_R: 0.9 g
  KIDNEY_TOTAL: 1.9 g
72 h, tissue Liver, time 3 day
  LIVER: 11.3 g
[2]
  A/G: 0.8
  ALP: 1834.4 IU/L
  ALT: 44.4 IU/L
  AST: 66.4 IU/L
  BUN: 16.2 mg/dL
  CRE: 0.2 mg/dL
  Ca: 10.6 mg/dL
  Cl: 106.2 meq/L
  DBIL: 0.018 mg/dL
  GLC: 183.6 mg/dL
  IP: 8.3 mg/dL
  K: 4.3 meq/L
  LDH: 94.6 IU/L
  Na: 142 meq/L
  PL: 162.6 mg/dL
  RALB: 2.7 g/dL
  TBIL: 0.04 mg/dL
  TC: 86.6 mg/dL
  TG: 109.8 mg/dL
  TP: 5.8 g/dL
  gamma-GTP: 1 IU/L
[…], time 7 day
  TERMINAL_BW: 265.1 g
  APTT: 19.8 s
  Bas: 0%
  Eos: 1%
  Fbg: 289.8 mg/dL
  Hb: 13.7 g/dL
  Ht: 41.7%
  Lym: 77.2%
  MCH: 20.6 pg
  MCHC: 32.8%
  MCV: 62.8 fL
  Mono: 2.6%
  Neu: 18.4%
  PT: 14 s
  Plat: 116 x10_4/uL
  RBC: 665 x10_4/ul
  Ret: 6%
  WBC: 80.2 x10_2/uL
[…], time 14 day
  TERMINAL_BW: 330.4 g
  APTT: 18.1 s
  Bas: 0.2%
  Eos: 1%
  Fbg: 299 mg/dL
  Hb: 14.4 g/dL
  Ht: 43.5%
  Lym: 80.2%
  MCH: 20.5 pg
  MCHC: 33.1%
  MCV: 61.9 fL
  Mono: 2.8%
  Neu: 15%
  PT: 14.4 s
  Plat: 119.7 x10_4/uL
  RBC: 703.8 x10_4/ul
  Ret: 4.6%
  WBC: 85 x10_2/uL
[…], time 28 day
  TERMINAL_BW: 400.2 g
  APTT: 17.7 s
  Bas: 0.4%
  Eos: 1%
  Fbg: 281.2 mg/dL
  Hb: 15.6 g/dL
  Ht: 46.5%
